# Measurements published in US20240277684A1, “BLOCKADE OF CHEMOKINE (C-C MOTIF) RECEPTOR 2 DURING FLUID RESUSCITATION” (University of South Florida, priority 2022, published 2024).
# Tests used:
# hemorrhagic shock [1] = test: Example 2 Series 1: 30 min hemorrhagic shock, fluid resuscitation until t=90 min; format: in vivo, rat
# Protocol: (§1) The hemorrhagic shock models were performed as described previously, with slight modifications (DeSantis A J, et al., The Chemokine (C-C Motif) Receptor 2 Antagonist INCB3284 Reduces Fluid Requirements and Protects From Hemodynamic Decompensation During Resuscitation From Hemorrhagic Shock. Crit Care Explor 2022;4(5):e0701; Bach H H, et al., Chemokine (C-X-C motif) receptor 4 and atypical chemokine receptor 3 regulate vascular alpha(1)-adrenergic receptor function. Mol Med 2014; 20:435-47; Nassoiy S P, et al., Effects of the Kv7 voltage activated potassium channel inhibitor linopirdine in rat models of hemorrhagic shock. Clin Exp Pharmacol Physiol 2018. doi: 10.1111/1440-1681.12958. PubMed PMID: 29702725; Bach H H, et al., Proteasome inhibition prolongs survival during lethal hemorrhagic shock in rats. J Trauma Acute Care Surg 2013; 74(2):499-507). In brief, anesthesia induction was performed with the animal and isoflurane-soaked gauze placed in a bell jar. After anesthesia induction, the animals were transferred to the operative field and anesthesia was maintained with 2.7% isoflurane administered via nose-cone inhalation with the SomnoSuite small animal anesthesia system (Kent Scientific Corporation, Torrington, CT, USA). […] Using a direct cut-down technique, the left femoral artery was isolated and cannulated with a 24-gauge peripheral intravenous catheter to allow for blood withdrawal, hemodynamic monitoring, drug administration, and fluid resuscitation. After catheter placement, isoflurane was decreased to 1.5%. Hemodynamics were continuously monitored with the Surgivet invasive blood pressure monitor (Med-Electronics, Beltsville, MD, USA). Blood pressures were recorded at 1-5 min intervals during the hemorrhage and resuscitation periods. Four subsequent series of experiments were performed. All experiments in each series were performed in alternating order. In all experiments animals were continuously monitored and remained under general anesthesia until euthanasia or death, as defined by asystole or loss of pulse pressure.
# Series 1: To assess the effects of SB328437 treatment after hemorrhagic shock and fluid resuscitation, and to be able to compare findings with the previous study on the effects of CCR2 and CCR5 inhibition, rats were hemorrhaged to a mean arterial blood pressure (MAP) of less than or equal to 30 mmHg for a period of 30 minutes. At the end of the hemorrhagic shock period (t=30 min), animals were injected with either vehicle (1 mL lactated Ringer's solution (LR), n=5), 0.25 μmol/kg SB328437 (n=3) or 1.1 μmol/kg SB328437 (n=3) in 1 mL LR, followed by fluid resuscitation with 1 mL bolus injections of LR to maintain a systolic blood pressure of 90 mm Hg or an MAP of 60 mm Hg until t=90 min, as described. To avoid fluid overload, bolus injections of LR were limited to 1 mL/min. At t=90 min, surviving animals were euthanized (5% isoflurane inhalation, bilateral pneumothorax).
# hemorrhagic shock [2] = test: Example 2 Series 2: 60 min hemorrhagic shock, single dose, fluid resuscitation until t=300 min; format: in vivo, rat
# Protocol: as §1
# Series 2: Rats were hemorrhaged to a MAP of less than or equal to 30 mmHg for a period of 60 min, followed by fluid resuscitation until t=300 min as in Series 1. At the end of the hemorrhagic shock period (t=60 min), animals were injected with 1 mL of normal saline (NS) (n=6), 5 μmol/kg (n=6) INCB3284 in 1 mL NS or 1.1 μmol/kg SB 328437 (n=6) in 1 mL NS at t=60 min. At t=0 min, 60 min, 120 min, 180 min, 240 min and 300 min, blood samples (0.3 ml) were obtained and used for arterial blood gas analyses and measurements of routine laboratory parameters. At t=300 min, surviving animals were euthanized (5% isoflurane inhalation, bilateral pneumothorax).
# Arterial blood gases and routine laboratory parameters. Arterial blood gases, electrolytes, creatinine, lactate, hematocrit and hemoglobin were analyzed using the Element point of care veterinary blood gas, electrolyte and critical care analyzer (Cuattro Veterinary USA, Loveland, CO, USA).
# CCR3 [3] = biological target: T1, CCR3 (Homo sapiens, UniProt P51677); settings: read-out: IC50, CCR3 antagonist; cited from earlier work
# T1 sequence (P51677 1-355): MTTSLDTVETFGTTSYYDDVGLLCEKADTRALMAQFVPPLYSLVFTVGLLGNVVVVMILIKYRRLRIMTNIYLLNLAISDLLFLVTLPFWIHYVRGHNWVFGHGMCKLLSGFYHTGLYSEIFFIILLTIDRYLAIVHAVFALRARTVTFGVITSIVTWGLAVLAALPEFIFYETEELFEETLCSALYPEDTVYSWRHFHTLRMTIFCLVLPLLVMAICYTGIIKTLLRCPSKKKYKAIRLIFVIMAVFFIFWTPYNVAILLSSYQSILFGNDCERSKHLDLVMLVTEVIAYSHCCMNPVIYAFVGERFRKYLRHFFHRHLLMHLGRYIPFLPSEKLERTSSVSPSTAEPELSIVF
# solubility = format: physicochemical
# severe hemorrhagic shock = test: Example 2 Series 4: lethal hemorrhage without fluid resuscitation; format: in vivo, rat; settings: 5 μmol/kg INCB3284 or 1 μmol/kg SB328437 after 40% TBV hemorrhage
# Protocol: as §1
# Series 4: The purpose of these experiments was to determine whether treatment with the chemokine receptor antagonists increases shock tolerance, blood pressure and survival time without additional fluid resuscitation. As such, death is an intentional endpoint. Earlier endpoints are unable to answer these questions and alternatives are not available. Rats were hemorrhaged 40% total blood volume (TBV) within 10 min. At t=15 min, animals were injected with vehicle (1 mL NS, n=3), 5 μmol/kg INCB3284 in 1 mL NS (n=5) or […] SB 328437 in 1 mL NS (n=5). Animals were then hemorrhaged 2% TBV every 5 minutes until death.
# CCR3 [4] = biological target: T1, CCR3; settings: cited from earlier work
# CCR2 = CCR2 (Homo sapiens, UniProt P41597); settings: read-out: Kd, binding affinity of CCL2 for CCR2; cited from earlier work
# Chain of CCR2 (P41597 whole entry, species assumed): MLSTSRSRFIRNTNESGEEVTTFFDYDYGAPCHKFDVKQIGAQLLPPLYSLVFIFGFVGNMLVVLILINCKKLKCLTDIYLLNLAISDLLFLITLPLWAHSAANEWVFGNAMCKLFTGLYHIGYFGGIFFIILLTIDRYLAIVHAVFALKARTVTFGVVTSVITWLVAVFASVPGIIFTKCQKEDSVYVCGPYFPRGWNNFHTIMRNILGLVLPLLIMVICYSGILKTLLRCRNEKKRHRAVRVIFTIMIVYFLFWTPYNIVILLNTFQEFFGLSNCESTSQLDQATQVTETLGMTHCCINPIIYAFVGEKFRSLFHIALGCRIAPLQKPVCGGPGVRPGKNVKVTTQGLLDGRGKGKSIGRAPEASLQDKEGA
# CCR5 = settings: cited from earlier work
# hemorrhagic shock [5] = test: Example 1 first series: 30 min hemorrhagic shock, fluid resuscitation until t=90 min; format: in vivo, rat; settings: 5.5 μmol/kg Maraviroc at t=30 min, vs vehicle or 1.1 INCB3284
# Protocol: In vivo animal experiments. All procedures were performed in accordance with the National Institutes of Health Guidelines for Use of Laboratory Animals and were approved by the University of South Florida Institutional Animal Care and Use Committeee (IS00008139). Male Sprague-Dawley rats (300-400 g, Envigo, Indianapolis, IN, USA). were anesthetized with 1.7% isoflurane via nose-cone inhalation with the SomnoSuite anesthesia system (Kent Scientific, Torrington, CT, USA). […] The left femoral artery was isolated and cannulated with a 24-gauge peripheral intravenous catheter to allow for blood withdrawal, hemodynamic monitoring, drug administration, and fluid resuscitation. Hemodynamics were continuously monitored with the SurgivetV6400 blood pressure monitor (Med-Electronics, Beltsville, MD, USA), and blood pressures and heart rate were recorded at 1-10 min intervals. All animals were observed over a 10 min period to ensure hemodynamic stability before start of the experiments. All experiments were performed randomized in alternating order. […] Physiol Res 2019; 68(4):675-679; Nassoiy S P, et al., Effects of the Kv7 voltage-activated potassium channel inhibitor linopirdine in rat models of haemorrhagic shock. Clin Exp Pharmacol Physiol 2018; Nassoiy S P, et al., Kv7 voltage-activated potassium channel inhibitors reduce fluid resuscitation requirements after hemorrhagic shock in rats. J Biomed Sci 2017; 24(1):8; Bach H Ht, et al., Proteasome inhibition prolongs survival during lethal hemorrhagic shock in rats. J Trauma Acute Care Surg 2013; 74(2):499-507; Bach H Ht, et al., Chemokine (C-X-C motif) receptor 4 and atypical chemokine receptor 3 regulate vascular alpha(1)-adrenergic receptor function. Mol Med 2014; 20:435-447), with slight modifications. In brief, rats were hemorrhaged to a mean arterial blood pressure (MAP) of less than or equal to 30 mmHg for a period of 30 minutes. At the end of the HS period (t=30 min), animals were injected with either vehicle (1 mL LR) or drug in 1 mL LR, followed by fluid resuscitation with 1 mL bolus injections of LR to maintain a systolic blood pressure (SBP) of 90 mmHg or a MAP of 60 mmHg. To avoid fluid overload, bolus injections of LR were limited to 1 mL/min. […] Animals were then resuscitated until t=90 min. At t=0, 15, 30, 60 and 90 min, blood samples were obtained, and plasma prepared. Samples were stored at -70° C. until further processing. At t=90 min, animals were euthanized (isoflurane inhalation, bilateral pneumothorax).
compound,measurement,setting,value
COC(=O)[C@H](Cc1ccc([N+](=O)[O-])cc1)NC(=O)c1cccc2ccccc12 [SB328437],Fluid requirements to achieve the MAP target vs vehicle,hemorrhagic shock [1]; 0.25 μmol/kg at t=30 min,comparable
same,MAP vs vehicle treated animals,hemorrhagic shock [1]; 0.25 μmol/kg at t=30 min,indistinguishable
same,fluid requirements (mean±SE),"hemorrhagic shock [1]; 0.25 μmol/kg at t=30 min, until t=90 min",53 ± 7 mL/kg
same,MAP at the end of the resuscitation period (t=80-90 min),hemorrhagic shock [1]; 1.1 μmol/kg at t=30 min,higher
same,reduction of fluid requirements,"hemorrhagic shock [1]; 1.1 μmol/kg at t=30 min, until t=90 min, vs vehicle",63±4%
same,fluid requirements (mean±SE),"hemorrhagic shock [1]; 1.1 μmol/kg at t=30 min, until t=90 min, p<0.05 vs. vehicle",19.5 ± 2 mL/kg
same,median survival time,hemorrhagic shock [2]; 1.1 μmol/kg SB328437 or 5 μmol/kg INCB3284 at t=60 min,290 min
same,animals that survived the resuscitation period,"hemorrhagic shock [2]; 1.1 μmol/kg SB328437 or 5 μmol/kg INCB3284 at t=60 min, until t=300 min, n=6",3 of 6
same,fluid requirements,hemorrhagic shock [2]; 1.1 μmol/kg at t=60 min,could not be significantly reduced
same,MAP during fluid resuscitation,"hemorrhagic shock [2]; 1.1 μmol/kg at t=60 min, between t=140-200 min",lower
same,IC50,CCR3 [3],4.5 nM
same,solubility,solubility,limited
same,MAP during subsequent 2% TBV hemorrhages in 5 min intervals,severe hemorrhagic shock; no fluid resuscitation,indistinguishable among groups
same,median survival time,severe hemorrhagic shock; not significantly different between groups,64 min
CCL2: principal endogenous agonist of chemokine (C-C motif) receptor 2 (CCR2),binding affinity of CCL2 for CCR3 lower than for CCR2,CCR3 [4],more than 100 fold
same,Kd,CCR2,~0.5 nM
same,binding affinity of CCL2 for CCR5 lower than for CCR2,CCR5,more than 100 fold
Maraviroc,effect on fluid requirements,hemorrhagic shock [5],did not affect fluid requirements
